# US10227344B2, “CK2 inhibitors, compositions and methods thereof” (Polaris Pharmaceuticals, Inc., priority 2016, dated 2019)
# Legend:
# Assay type in all cases: cell-based
# MDA-MB-453 = assay: Cancer cell panel, cell viability (resazurin): Breast, MDA-MB-453; settings: MDA-MB-453 (Breast), 72 hours; labelled drug combined with Example 3
# HCT116 = assay: Cancer cell panel, cell viability (resazurin): Colon, HCT116; settings: 72 hours, labelled drug combined with Example 3
# H1975 = assay: Cancer cell panel, cell viability (resazurin): NSCLC, H1975; settings: 72 hours, labelled drug combined with Example 3
# PC3 = assay: Cancer cell panel, cell viability (resazurin): Prostate, PC3; settings: 72 hours, labelled drug combined with Example 3
# Description: (§1) Cells were plated in 96-well plates and treated for 72 hours with a serially diluted CK2 inhibitor or anti-cancer drug or their combination. The suspension cell lines were treated right after plating, while the adherent cells were allowed to attach overnight prior to the start of the treatment.
# (§2) Cell viability was determined by adding resazurin to cell cultures and measuring fluorescence with a plate reader. Relative cell viability was calculated by dividing the cell viability signal from a test sample by that of a non-treated control. […] Bliss Independence and Highest Single Agent models were used to determine if there is synergy, additivity or antagonism between the CK2 inhibitor and an anti-cancer drug.
# Mia-Paca-2 = assay: Cancer cell panel, cell viability (resazurin): Pancreatic, Mia-Paca-2; settings: Mia-Paca-2 (Pancreatic), 72 hours; labelled drug combined with Example 3
# BT-20 = assay: Cancer cell panel, cell viability (resazurin): Breast, BT-20; settings: BT-20 (Breast), 72 hours; labelled drug combined with Example 3
# Raji = assay: Cancer cell panel, cell viability (resazurin): Burkitt's Lymphoma, Raji; settings: 72 hours, labelled drug combined with Example 3
# MDA-MB-231 = assay: Cancer cell panel, cell viability (resazurin): Breast, MDA-MB-231; settings: MDA-MB-231 (Breast), 72 hours; labelled drug combined with Example 3
# HL60 = assay: Cancer cell panel, cell viability (resazurin): Leukemia, HL60; settings: 72 hours, labelled drug combined with Example 3
# SKOV-3 = assay: Cancer cell panel, cell viability (resazurin): Ovarian, SKOV-3; settings: SKOV-3 (Ovarian), 72 hours; labelled drug combined with Example 3
# ACHN = assay: Cancer cell panel, cell viability (resazurin): Renal, ACHN; settings: 72 hours, labelled drug combined with Example 3
# LoVo = assay: Cancer cell panel, cell viability (resazurin): Colon, LoVo; settings: 72 hours, labelled drug combined with Example 3
# Description: as §1, §2
# OVCAR-3 = assay: Cancer cell panel, cell viability (resazurin): Ovarian, OVCAR-3; settings: OVCAR-3 (Ovarian), 72 hours; labelled drug combined with Example 3
# H23 = assay: Cancer cell panel, cell viability (resazurin): NSCLC, H23; settings: 72 hours, labelled drug combined with Example 3
# Colo205 = assay: Cancer cell panel, cell viability (resazurin): Colon, Colo205; settings: 72 hours, labelled drug combined with Example 3
# Description: as §1, §2
# SK-MEL-3 = assay: Cancer cell panel, cell viability (resazurin): Melanoma, SK-MEL-3; settings: SK-MEL-3 (Melanoma), 72 hours; labelled drug combined with Example 3
# Caov-3 = assay: Cancer cell panel, cell viability (resazurin): Ovarian, Caov-3; settings: Caov-3 (Ovarian), 72 hours; labelled drug combined with Example 3
# Description: as §1, §2
# Daudi = assay: Cancer cell panel, cell viability (resazurin): Burkitt's Lymphoma, Daudi; settings: 72 hours, labelled drug combined with Example 3
# Panc-1 = assay: Cancer cell panel, cell viability (resazurin): Pancreatic, Panc-1; settings: Panc-1 (Pancreatic), 72 hours; labelled drug combined with Example 3
# Description: as §1, §2
# H2122 = assay: Cancer cell panel, cell viability (resazurin): NSCLC, H2122; settings: 72 hours, labelled drug combined with Example 3
# MOLT4 = assay: Cancer cell panel, cell viability (resazurin): Leukemia, MOLT4; settings: 72 hours, labelled drug combined with Example 3
# Description: as §1, §2
# DLD-1 = assay: Cancer cell panel, cell viability (resazurin): Colon, DLD-1; settings: DLD-1 (Colon), 72 hours; labelled drug combined with Example 3
# Description: as §1, §2
# K562 = assay: Cancer cell panel, cell viability (resazurin): Leukemia, K562; settings: 72 hours, labelled drug combined with Example 3
# WM-115 = assay: Cancer cell panel, cell viability (resazurin): Melanoma, WM-115; settings: WM-115 (Melanoma), 72 hours; labelled drug combined with Example 3
# MDA-MB-157 = assay: Cancer cell panel, cell viability (resazurin): Breast, MDA-MB-157; settings: MDA-MB-157 (Breast), 72 hours; labelled drug combined with Example 3
# EOL-1 = assay: Cancer cell panel, cell viability (resazurin): Leukemia, EOL-1; settings: EOL-1 (Leukemia), 72 hours; labelled drug combined with Example 3
# RPMI8226 = assay: Cancer cell panel, cell viability (resazurin): multiple myeloma, RPMI8226; settings: 72 hours, labelled drug combined with Example 3
# ZR-75-1 = assay: Cancer cell panel, cell viability (resazurin): Breast, ZR-75-1; settings: ZR-75-1 (Breast), 72 hours; labelled drug combined with Example 3
# BT-474 = assay: Cancer cell panel, cell viability (resazurin): Breast, BT-474; settings: BT-474 (Breast), 72 hours; labelled drug combined with Example 3
# Description: as §1, §2
# SK-MEL-24 = assay: Cancer cell panel, cell viability (resazurin): Melanoma, SK-MEL-24; settings: SK-MEL-24 (Melanoma), 72 hours; labelled drug combined with Example 3
# T47D = assay: Cancer cell panel, cell viability (resazurin): Breast, T47D; settings: 72 hours, labelled drug combined with Example 3
# Description: as §1, §2
# BxPC3 = assay: Cancer cell panel, cell viability (resazurin): Pancreatic, BxPC3; settings: 72 hours, labelled drug combined with Example 3
# SkBr-3 = assay: Cancer cell panel, cell viability (resazurin): Breast, SkBr-3; settings: SkBr-3 (Breast), 72 hours; labelled drug combined with Example 3
# Caki-1 = assay: Cancer cell panel, cell viability (resazurin): Renal, Caki-1; settings: Caki-1 (Renal), 72 hours; labelled drug combined with Example 3
# A375 = assay: Cancer cell panel, cell viability (resazurin): Melanoma, A375; settings: 72 hours, labelled drug combined with Example 3
# H460 = assay: Cancer cell panel, cell viability (resazurin): NSCLC, H460; settings: 72 hours, labelled drug combined with Example 3
# H1299 = assay: Cancer cell panel, cell viability (resazurin): NSCLC, H1299; settings: 72 hours, labelled drug combined with Example 3
# Description: as §1, §2
# A2780 = assay: Cancer cell panel, cell viability (resazurin): Ovarian, A2780; settings: 72 hours, labelled drug combined with Example 3
# Description: as §1, §2
compound,measurement,setting,value
"COc1cccc2c1C(=O)c1c(O)c3c(c(O)c1C2=O)C[C@@](O)(C(=O)CO)C[C@@H]3O[C@H]1C[C@H](N)[C@H](O)[C@H](C)O1 [Doxorubicin, doxorubicin]","synergy, additivity or antagonism of the combination of Example 3 with the anti-cancer drug",MDA-MB-453,+ + + (Synergy relative to each agent alone (CI = 0.4-0.74 by Bliss Independence Model))
same,"synergy, additivity or antagonism of the combination of Example 3 with the anti-cancer drug",HCT116,+ + (Slight synergy relative to each agent alone (CI = 0.75-0.9 by Bliss Independence Model))
same,"synergy, additivity or antagonism of the combination of Example 3 with the anti-cancer drug",H1975,+ (Additive relative to each agent alone (CI = 0.9-1 by Bliss Independence Model and <0.9 by Highest Single Agent Model))
same,"synergy, additivity or antagonism of the combination of Example 3 with the anti-cancer drug",PC3,+ (Additive relative to each agent alone (CI = 0.9-1 by Bliss Independence Model and <0.9 by Highest Single Agent Model))
same,"synergy, additivity or antagonism of the combination of Example 3 with the anti-cancer drug",Mia-Paca-2,+ (Additive relative to each agent alone (CI = 0.9-1 by Bliss Independence Model and <0.9 by Highest Single Agent Model))
same,"synergy, additivity or antagonism of the combination of Example 3 with the anti-cancer drug",BT-20,+ + (Slight synergy relative to each agent alone (CI = 0.75-0.9 by Bliss Independence Model))
same,"synergy, additivity or antagonism of the combination of Example 3 with the anti-cancer drug",Raji,+ + (Slight synergy relative to each agent alone (CI = 0.75-0.9 by Bliss Independence Model))
same,"synergy, additivity or antagonism of the combination of Example 3 with the anti-cancer drug",MDA-MB-231,+ (Additive relative to each agent alone (CI = 0.9-1 by Bliss Independence Model and <0.9 by Highest Single Agent Model))
same,"synergy, additivity or antagonism of the combination of Example 3 with the anti-cancer drug",HL60,+ (Additive relative to each agent alone (CI = 0.9-1 by Bliss Independence Model and <0.9 by Highest Single Agent Model))
same,"synergy, additivity or antagonism of the combination of Example 3 with the anti-cancer drug",SKOV-3,+ (Additive relative to each agent alone (CI = 0.9-1 by Bliss Independence Model and <0.9 by Highest Single Agent Model))
same,"synergy, additivity or antagonism of the combination of Example 3 with the anti-cancer drug",ACHN,+ (Additive relative to each agent alone (CI = 0.9-1 by Bliss Independence Model and <0.9 by Highest Single Agent Model))
same,"synergy, additivity or antagonism of the combination of Example 3 with the anti-cancer drug",LoVo,+ (Additive relative to each agent alone (CI = 0.9-1 by Bliss Independence Model and <0.9 by Highest Single Agent Model))
same,"synergy, additivity or antagonism of the combination of Example 3 with the anti-cancer drug",OVCAR-3,+ + (Slight synergy relative to each agent alone (CI = 0.75-0.9 by Bliss Independence Model))
same,"synergy, additivity or antagonism of the combination of Example 3 with the anti-cancer drug",H23,+ + (Slight synergy relative to each agent alone (CI = 0.75-0.9 by Bliss Independence Model))
same,"synergy, additivity or antagonism of the combination of Example 3 with the anti-cancer drug",Colo205,+ + (Slight synergy relative to each agent alone (CI = 0.75-0.9 by Bliss Independence Model))
same,"synergy, additivity or antagonism of the combination of Example 3 with the anti-cancer drug",SK-MEL-3,+ + (Slight synergy relative to each agent alone (CI = 0.75-0.9 by Bliss Independence Model))
same,"synergy, additivity or antagonism of the combination of Example 3 with the anti-cancer drug",Caov-3,+ (Additive relative to each agent alone (CI = 0.9-1 by Bliss Independence Model and <0.9 by Highest Single Agent Model))
same,"synergy, additivity or antagonism of the combination of Example 3 with the anti-cancer drug",Daudi,+ (Additive relative to each agent alone (CI = 0.9-1 by Bliss Independence Model and <0.9 by Highest Single Agent Model))
same,"synergy, additivity or antagonism of the combination of Example 3 with the anti-cancer drug",Panc-1,+ + (Slight synergy relative to each agent alone (CI = 0.75-0.9 by Bliss Independence Model))
same,"synergy, additivity or antagonism of the combination of Example 3 with the anti-cancer drug",H2122,+ + (Slight synergy relative to each agent alone (CI = 0.75-0.9 by Bliss Independence Model))
same,"synergy, additivity or antagonism of the combination of Example 3 with the anti-cancer drug",MOLT4,+ + + (Synergy relative to each agent alone (CI = 0.4-0.74 by Bliss Independence Model))
same,"synergy, additivity or antagonism of the combination of Example 3 with the anti-cancer drug",DLD-1,+ + (Slight synergy relative to each agent alone (CI = 0.75-0.9 by Bliss Independence Model))
same,"synergy, additivity or antagonism of the combination of Example 3 with the anti-cancer drug",K562,+ (Additive relative to each agent alone (CI = 0.9-1 by Bliss Independence Model and <0.9 by Highest Single Agent Model))
same,"synergy, additivity or antagonism of the combination of Example 3 with the anti-cancer drug",WM-115,+ + + (Synergy relative to each agent alone (CI = 0.4-0.74 by Bliss Independence Model))
same,"synergy, additivity or antagonism of the combination of Example 3 with the anti-cancer drug",MDA-MB-157,+ + + (Synergy relative to each agent alone (CI = 0.4-0.74 by Bliss Independence Model))
same,"synergy, additivity or antagonism of the combination of Example 3 with the anti-cancer drug",EOL-1,+ + (Slight synergy relative to each agent alone (CI = 0.75-0.9 by Bliss Independence Model))
same,"synergy, additivity or antagonism of the combination of Example 3 with the anti-cancer drug",RPMI8226,+ + + (Synergy relative to each agent alone (CI = 0.4-0.74 by Bliss Independence Model))
same,"synergy, additivity or antagonism of the combination of Example 3 with the anti-cancer drug",ZR-75-1,+ + (Slight synergy relative to each agent alone (CI = 0.75-0.9 by Bliss Independence Model))
same,"synergy, additivity or antagonism of the combination of Example 3 with the anti-cancer drug",BT-474,+ + (Slight synergy relative to each agent alone (CI = 0.75-0.9 by Bliss Independence Model))
same,"synergy, additivity or antagonism of the combination of Example 3 with the anti-cancer drug",SK-MEL-24,+ (Additive relative to each agent alone (CI = 0.9-1 by Bliss Independence Model and <0.9 by Highest Single Agent Model))
same,"synergy, additivity or antagonism of the combination of Example 3 with the anti-cancer drug",T47D,+ (Additive relative to each agent alone (CI = 0.9-1 by Bliss Independence Model and <0.9 by Highest Single Agent Model))
same,"synergy, additivity or antagonism of the combination of Example 3 with the anti-cancer drug",BxPC3,+ + (Slight synergy relative to each agent alone (CI = 0.75-0.9 by Bliss Independence Model))
same,"synergy, additivity or antagonism of the combination of Example 3 with the anti-cancer drug",SkBr-3,+ (Additive relative to each agent alone (CI = 0.9-1 by Bliss Independence Model and <0.9 by Highest Single Agent Model))
same,"synergy, additivity or antagonism of the combination of Example 3 with the anti-cancer drug",Caki-1,+ (Additive relative to each agent alone (CI = 0.9-1 by Bliss Independence Model and <0.9 by Highest Single Agent Model))
same,"synergy, additivity or antagonism of the combination of Example 3 with the anti-cancer drug",A375,+ (Additive relative to each agent alone (CI = 0.9-1 by Bliss Independence Model and <0.9 by Highest Single Agent Model))
same,"synergy, additivity or antagonism of the combination of Example 3 with the anti-cancer drug",H460,+ + (Slight synergy relative to each agent alone (CI = 0.75-0.9 by Bliss Independence Model))
same,"synergy, additivity or antagonism of the combination of Example 3 with the anti-cancer drug",H1299,+ (Additive relative to each agent alone (CI = 0.9-1 by Bliss Independence Model and <0.9 by Highest Single Agent Model))
same,"synergy, additivity or antagonism of the combination of Example 3 with the anti-cancer drug",A2780,+ (Additive relative to each agent alone (CI = 0.9-1 by Bliss Independence Model and <0.9 by Highest Single Agent Model))
